# US9458184B2, “Compositions of TLR7 and/or TLR8 agonists conjugated to lipids” (CAYLA, priority 2012, dated 2016)
# How the values were obtained:
# [1] = target: T1, human TLR7 (Homo sapiens, UniProt Q9NYK1); assay: HEK-Blue hTLR7 NF-κB/AP-1 SEAP reporter cell assay
# T1 sequence (Q9NYK1 27-1049): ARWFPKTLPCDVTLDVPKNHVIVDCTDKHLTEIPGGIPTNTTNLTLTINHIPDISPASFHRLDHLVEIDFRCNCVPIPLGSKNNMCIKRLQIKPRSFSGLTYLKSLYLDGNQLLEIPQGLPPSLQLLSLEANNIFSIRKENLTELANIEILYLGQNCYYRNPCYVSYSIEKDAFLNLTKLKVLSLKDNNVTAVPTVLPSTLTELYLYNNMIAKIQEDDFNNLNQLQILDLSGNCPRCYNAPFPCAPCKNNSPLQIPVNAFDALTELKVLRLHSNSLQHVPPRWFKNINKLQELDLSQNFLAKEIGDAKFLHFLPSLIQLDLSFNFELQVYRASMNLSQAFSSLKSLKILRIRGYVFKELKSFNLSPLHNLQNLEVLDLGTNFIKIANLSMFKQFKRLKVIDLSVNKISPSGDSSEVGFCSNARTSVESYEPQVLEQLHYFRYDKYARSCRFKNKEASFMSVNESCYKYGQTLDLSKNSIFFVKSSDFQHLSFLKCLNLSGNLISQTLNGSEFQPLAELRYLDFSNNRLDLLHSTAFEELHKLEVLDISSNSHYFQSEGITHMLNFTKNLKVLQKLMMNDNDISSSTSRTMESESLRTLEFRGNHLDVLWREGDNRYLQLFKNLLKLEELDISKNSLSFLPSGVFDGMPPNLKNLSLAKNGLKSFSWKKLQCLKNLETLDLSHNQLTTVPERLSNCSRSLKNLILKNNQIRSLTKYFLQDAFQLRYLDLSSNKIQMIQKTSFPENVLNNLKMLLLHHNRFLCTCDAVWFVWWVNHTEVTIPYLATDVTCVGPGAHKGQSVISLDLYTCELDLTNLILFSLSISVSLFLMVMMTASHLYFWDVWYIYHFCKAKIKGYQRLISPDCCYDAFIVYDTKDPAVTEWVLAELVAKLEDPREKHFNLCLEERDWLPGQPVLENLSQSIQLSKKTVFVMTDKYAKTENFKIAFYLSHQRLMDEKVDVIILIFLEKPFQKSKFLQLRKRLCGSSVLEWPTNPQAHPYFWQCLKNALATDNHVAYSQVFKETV
# [2] = test system: B16-F1 tumor; assay: Mouse B16 tumor model, intratumoral injection; assay type: in vivo, C57BL/6 mice; conditions: by day 28, 3 intra-tumoral injections, 40 μg in 100 μl
# [3] = test system: mouse B16 melanoma cell line; assay: Cell transfection with SEAP plasmid, B16; assay type: cell-based; conditions: complexed with pVitro14 LGFP SEAP plasmid, B16, 48 hours
# [4] = test system: human HEK293 cell line; assay: Cell transfection with SEAP plasmid, HEK293; assay type: cell-based; conditions: complexed with pVitro14 LGFP SEAP plasmid, HEK293, 48 hours
# [5] = test system: plasmid DNA; assay type: physicochemical
Compound,TLR7 activity (NF-κB/AP-1-inducible SEAP reporter) [1],survival of mice [2],transfection (SEAP reporter gene expression) [3],transfection (SEAP reporter gene expression) [4],complex formation with pDNA (retardation of pDNA migration in gel) [5]
"CCCCNc1nc(N)c2nc(O)n(Cc3ccc(C(=O)NCC(=O)NCCCC[C@H](NCCCP(=O)(OCCC(C)CCCC(C)CCCC(C)CCCC(C)C)OCCC(C)CCCC(C)CCCC(C)CCCC(C)C)C(=O)NCCCNCCCCNCCCN)cc3)c2n1 (stereo in doubt) [CL493, (S)-bis(3,7,11,15-tetramethylhexadecyl) 19-amino-5-(4-(2-(4-((6-amino-2-(butylamino)-8-hydroxy-9H-purin-9-yl)methyl)benzamido)acetamido)butyl)-6-oxo-4,7,11,16-tetraazanonadecylphosphonate]",strong and specific TLR7 activity,–,–,–,–
"CCCCNc1nc(N)c2nc(O)n(Cc3ccc(C(=O)NCCCNCCCCNCCCNCCCP(=O)(OCCC(C)CCCC(C)CCCC(C)CCCC(C)C)OCCC(C)CCCC(C)CCCC(C)CCCC(C)C)cc3)c2n1 (centres unmarked) [CL346, bis(3,7,11,15-tetramethylhexadecyl) 1-(4-((6-amino-2-(butylamino)-8-hydroxy-9H-purin-9-yl)methyl)phenyl)-1-oxo-2,6,11,15-tetraazaoctadecan-18-ylphosphonate]",strong and specific TLR7 activity,–,–,–,–
"CCCCNc1nc(N)c2nc(O)n(Cc3ccc(C(=O)NCC(=O)NCCCNCCCCNCCCNCCCP(=O)(OCCC(C)CCCC(C)CCCC(C)CCCC(C)C)OCCC(C)CCCC(C)CCCC(C)CCCC(C)C)cc3)c2n1 (centres unmarked) [CL347, bis(3,7,11,15-tetramethylhexadecyl) 1-(4-((6-amino-2-(butylamino)-8-hydroxy-9H-purin-9-yl)methyl)phenyl)-1,4-dioxo-2,5,9,14,18-pentaazahenicosan-21-ylphosphonate]",strong and specific TLR7 activity,no survival,–,–,–
"CCCCCCCCCCCCCCCCOP(=O)(CCCN[C@@H](CCCCNC(=O)CNC(=O)c1ccc(Cn2c(O)nc3c(N)nc(NCCCC)nc32)cc1)C(=O)NCCCNCCCCNCCCN)OCCCCCCCCCCCCCCCC [CL481, (S)-dihexadecyl 19-amino-5-(4-(2-(4-((6-amino-2-(butylamino)-8-hydroxy-9H-purin-9-yl)methyl)benzamido)acetamido)butyl)-6-oxo-4,7,11,16-tetraazanonadecylphosphonate]",strong and specific TLR7 activity,–,inability to transfect cells,inability to transfect cells,inability to form complex with plasmid DNA
